{
  "source": "patent US10806761B2",
  "about": "“Oncolytic HSV1 vector and methods of use” (THE BRIGHAM AND WOMEN'S HOSPITAL, INC., priority 2015, dated 2020)",
  "test_system": "gliomas",
  "conditions": "single dose administered two days before rQNestin34.5v.2",
  "description": "Mammals are able to rapidly counteract HSV1 in the brain through their initial immune responses.",
  "data": [
    {"smiles": "O=P1(N(CCCl)CCCl)NCCCO1", "note": "(centres unmarked) [cyclophosphamide]", "values": [
      {"measurement": "effect on viral biodistribution, replication and efficacy", "value": "significantly enhances viral biodistribution, replication and efficacy"},
      {"measurement": "reduction of the dose of virus required to produce a survival effect", "value": "two orders of magnitude"}
    ]}
  ]
}
